# In patent publication US10716759B2, “Rehydration of micronized tecovirimat monohydrate” (SIGA TECHNOLOGIES, INC., priority 2013, dated 2020):
# Tests used:
# [1] = in vivo; cited from earlier work
# [2] = intravenous administration; cited from earlier work
# [3] = test system: authentic variola virus; conditions: cited from earlier work
# [4] = Moisture content by Karl Fischer method; assay type: physicochemical; conditions: Tray rehydration (18 hours bench top, 2 hours 25° C./60% RH or 2 hours 40° C./75% RH)
SMILES,Bioavailability [1],Nephrotoxicity [2],Variola virus replication [3],Moisture (% w/w KF) [4] [% w/w]
"Nc1ccn(C[C@@H](CO)OCP(=O)(O)O)c(=O)n1 [Cidofovir, (S)-1-(3-hydroxy-2-phosphonylmethoxypropyl)cytosine]",poorly bioavailable,dose-limiting nephrotoxicity,inhibit authentic variola virus replication,
"O=C(NN1C(=O)[C@@H]2[C@@H]3C=C[C@@H]([C@H]4C[C@@H]34)[C@@H]2C1=O)c1ccc(C(F)(F)F)cc1 [ST-246, N-[(3aR,4R,4aR,5aS,6S,6aS)-3,3a,4,4a,5,5a,6,6a-octahydro-1,3-dioxo-4,6-ethenocycloprop[f]isoindol-2(1H)-yl]-4-(trifluoromethyl)-benzamide]",,,,~4.5
